Key:
Type in all cases: in vivo, Drosophila melanogaster
[1] = tested on: Rescue (dFMR1-3+wild type rescue fragment) flies; assay: Naive courtship behavior (courtship index toward virgin female), Rescue flies; conditions: for naive courtship: MPEP 20 μg/ml, LY341495 400 nM in food
Text: Learning and memory (cognitive abilities) can be examined in Drosophila by utilizing several available learning and memory paradigms. The most popular is a classical conditioning paradigm in which the flies learn to associate electric shocks with olfactory cues (Dudia et al, 1976; Davis, 1993; Tully, 1994). An alternative paradigm to study learning and memory in Drosophila is called conditioned courtship, wherein a male fly learns to modify his courtship behavior after experience with an unreceptive female; it is a multi-sensory paradigm involving associations from more then one sensory input (Siegel and Hall, 1979; for review see Hall, 1994). It is a more complex associative learning paradigm and was utilized to assay learning and memory in this article to elucidate the role of dFMR1 in learning and memory (Tompkins et al, 1980; Tompkins et al, 1982; Tompkins et al, 1983; Tompkins et al, 1984; Ackerman and Siegel, 1986). Courting male flies perform a characteristic sequence of behaviors: orienting toward and following the female, tapping her with his forelegs, vibrating one or both wings, licking her genitalia, and attempting copulation (Sturtevant, 1915; Bastock and Manning, 1955; Bastock, 1956). These behaviors are repeated with some variation until successful copulation occurs. Virgin females will generally respond by mating; however, recently mated females will be unreceptive and will not allow copulation to occur (Spieth, 1974), they display different behaviors (Bastock and Manning, 1955; Connolly and Cook, 1973) and have an altered, although somewhat overlapping, pheromonal profile (Cobb and Ferveur, 1996). The naive male will find a previously mated female to have a pheromonal repertoire that is less provocative then that of a virgin female target. A naive male paired with a mated female will initially court her, but his courtship activity soon decreases; after 1 hour of experience with the mated female, his courtship when subsequently paired with a virgin female remains depressed for 2-3 hours (Siegel and Hall, 1979). This effect is not a general suppression of all courtship activity since a male's tendency to court an immature male is not suppressed (Gailey et al, 1984). […] These behaviors are quantified as a courtship index (CI) which is defined as the percentage of time a male fly spends performing any of the six courtship steps toward a target female in a ten minute test period. A decrease in CI after training with a previously mated female is indicative of behavioral plasticity in the form of learning or memory.
Since we use female targets that are not etherized (therefore they are freely moving), and the w118 and dfmr1-3 flies may have slightly impaired visual acuity due to lack of eye pigmentation, and since visual inputs affect courtship behavior, all subsequent experiments were done utilizing only the genotypes Rescue: dfmr1-3+wild type rescue fragment, and FS: dfmr1-3+frame shifted rescue fragment. Both of these genotypes have more pigmentation and similar levels of eye pigmentation to each other. For FIGS. 4 and 5, a high concentration of MPEP (1,000 μg/ml) was used. For the remainder of the experiments the food was either control (CT) or exactly the same control food containing the appropriate concentration of MPEP (M). The position of the CT and the M are indicative of the point at which the group was on the particular food. The first letter indicates the food type that the larvae grew up on, and the second letter denotes the food type that the adult flies were placed on within four hours of eclosion, and for the four following days, until the day before testing when they were placed on fresh food.
In order to determine if MPEP can get into the Drosophila central nervous system (CNS) through feeding behavior, we mixed MPEP into the food at a concentration of 1,000 μg/ml ([…]). Males were raised on CT food and then placed on either CT or M food. […]

[2] = tested on: Rescue flies; assay: Short-term memory (60 mins) with mated female targets, Rescue flies; conditions: for short-term memory, mated female target: 86 μM MPEP, 400 nM LY341495, 573 μM MPPG, 348 μM MTPG; for memory at 60 minutes post training, mated female target: 5 day old, 8.6 mM MPEP, 400 nM LY341495
Protocol: Effects of drug treatment on short-term memory (60 mins) in flies lacking dfmr1 activity with mated female targets. Short-term (60 min.) memory was measured in Rescue and FS flies that were either fed control food or underwent various drug treatments as described below. Short-term memory was measured by placing a trained male in a holding chamber for 60 minutes (after being trained for one hour with a previously mated female), then subsequently placing him in a testing chamber with a mated female target for a ten-minute courtship interval (C.I.). This C.I. was compared to the C.I. obtained for naïve courtship of a previously mated female, i.e., C.I. during the first 10 minutes of the training session with a previously mated female. Additionally, for reference the C.I. during the last 10 minutes of the training period was also determined. Numbers of flies are indicated above each bar for all groups. The levels of significance are indicated as follows; *=p<0.05; **=p<0.005; ***=p<0.0001.
Restoration of short-term memory with mGluR antagonists. To establish that the failure to observe memory was not due to a problem with recognizing or processing the appropriate cues from the virgin female target, we used a modified version of the conditioned courtship paradigm where the male is paired with a mated female target subsequent to training (Kane et al., 1997; Joiner and Griffith, 1997; Joiner and Griffith, 1999; Kamashev et al., 1999). Again, with pharmacologic treatment it is necessary to utilize more then one compound to confirm the specificity of the target, so in this case we used four mGluR antagonists. […] It is also important to note that the robust deficit in synaptic plasticity in FS flies, with regard to memory, is a critical extension of the previous models of Fragile X syndrome in model organisms, since this is one of the most prominent aspects of the human disorder. Furthermore, we have shown that antagonism of the mGluRs can restore synaptic plasticity in the Drosophila model of Fragile X syndrome.

[3] = tested on: FS (dFMR1-3+frame shifted rescue fragment) flies; assay: Conditioned courtship: short-term memory at 60 minutes, virgin female target, FS flies; conditions: for short-term memory: concentration not given; for short term memory: LY341495 (400 nM), MPEP (20 μg/ml); for short-term memory at 60 minutes after training: adulthood alone or both
Protocol: Short-term memory. The model was further extended to encompass short-term memory at 60 minutes after training. After the one hour training session with a previously mated female, the female is removed and the male is placed in a holding chamber for 60 minutes, then subsequently placed in a testing chamber with a virgin female target to assess short-term memory (FIG. 4C). […] CT-CT FS flies court just as vigorously at 60 minutes after training as naive CT-CT FS flies. […] The FS groups that were treated with MPEP in development alone, adulthood alone or in both development and adulthood display experience dependent reduction of courtship activity at 60 minutes after training when compared to group matched naives M-M FS, p<0.0001, CT-M FS, p<0.0001 and M-CT FS, p<0.0001. […] Additionally, flies were tested for ability to discriminate between virgin and previously mated females (FIG. 4D).
In order to examine short-term memory at 60 minutes after training, after the one hour training session with a previously mated female, the female is removed and the male is placed in a holding chamber for 60 minutes, then subsequently placed in a testing chamber with a virgin female (FIG. 9B). […] CT-CT FS flies court just as vigorously at 60 minutes after training as naive CT-CT FS flies. […] The FS groups that were treated with MPEP in development alone, adulthood alone or in both development and adulthood display experience dependent reduction of courtship activity at 60 minutes after training when compared to group matched naives M-M FS.

In the case of `CC(N)(C(=O)O)c1ccc(-c2nnn[nH]2)cc1` (racemic) [MTPG, (RS)-α-methyl-4-tetrazolylphenylglycine], the naive courtship activity ([1]; 5 day old adults, 573 mM MPPG or 348 μM MTPG, p<0.0001 for both) is reported as “significant decrease in courtship activity”, the “short-term memory, mated female target” value [2] is reported as “demonstrated intact short-term memory” and the “memory at 60 minutes post training, mated female target” value (“memory at 60 minutes post training” below) [2] is reported as “demonstrate memory at 60 minutes post training”. For the same molecule, the short-term memory ([3]; 20-day-old) was “rescue short-term memory”.

With `N[C@](CC1c2ccccc2Oc2ccccc21)(C(=O)O)[C@H]1C[C@@H]1C(=O)O` [LY341495, (2S)-2-amino-2-[(1S,2S)-2-carboxycycloprop-1-yl]-3-(xanth-9-yl) propionic acid] the naive courtship ([1]; 5 day old) was “suppressed naive courtship”, the “short-term memory, mated female target” value [2] was “demonstrated intact short-term memory” and the “memory at 60 minutes post training” value [2] was “demonstrate memory at 60 minutes post training”. The short-term memory ([3]; 20-day-old) was “rescue short-term memory” and the short term memory ([3]; 5 day old) was “restored short-term memory”.

For `Cc1cccc(C#Cc2ccccc2)n1` [MPEP, 2-methyl-6-(phenylethynyl)pyridine], the naive courtship ([1]; 5 day old) was “suppressed naive courtship”, the naive courtship activity ([1]; 5 day old, MPEP 200 μg/ml (86.6 μM) in adulthood only (CT-M), p<0.0001) was “depressed relative to CT-CT Rescue flies” and the naive courtship activity ([1]; 5 day old, MPEP 200 μg/ml (86.6 μM) in development, with or without adulthood (M-M, M-CT)) was “courted as vigorously as CT-CT Rescues flies”. The naive courtship behavior ([1]; 5 day old, MPEP 1,000 μg/ml (433.0 μM) in food in adulthood (CT-M)) was “reduced”, the “short-term memory, mated female target” value [2] was “demonstrated intact short-term memory” and the “memory at 60 minutes post training” value [2] was “demonstrate memory at 60 minutes post training”. The “short-term memory at 60 minutes after training” value ([3]; 20-day-old, MPEP in development alone) was “short-term memory is also rescued”, the short term memory ([3]; 5 day old) was “restored short-term memory” and the “short-term memory at 60 minutes after training” value ([3]; 5 day old, MPEP 200 μg/ml in development alone, p<0.0001) was “short-term memory is also rescued”.

Reference: patent publication US20080187492A1, “Drosophila Models For Diseases Affecting Learning and Memory” (priority 2004, published 2008)
